Holding throughout (format): nucleic-acid assay
The subject of assay [1] is Nucleic Acid. The experiment in a line: Ratio between poly-dAdT and poly-dGdC binding.
In assay [2] the test system is Nucleic Acid. Briefly: Thermal denaturation in sonicated poly(dA)-poly(dT) homopolymer (AT).
Assay [3] deals with Nucleic Acid. Briefly: Thermal denaturation in alternating poly(dA-dT)poly(dA-dT) homopolymer (AT).
In another assay the test system is Calf thymus DNA. The experiment in a line: Thermal denaturation in sonicated calf thymus DNA (CT DNA). To be noted: Bos taurus.
Assay [4] deals with Nucleic Acid. Briefly: Thermal denaturation in alternating poly(dG-dC)-poly(dG-dC) homopolymer (GC).

For orientation: Tm means the temperature at the midpoint of the melting transition. With `CNc1ccc2[nH]c(CCc3nc4cc(NC)ccc4[nH]3)nc2c1`, in the assay on Nucleic Acid [1], the Ratio turned out to be 4. Further, the midpoint of thermal melting (Tm) in the assay with Nucleic Acid [2] was 34.2 °C; in the assay with Nucleic Acid [3], 14.1 °C; with Calf thymus DNA, 12.8 °C; in the assay with Nucleic Acid [4], 3.9 °C.
For the compound `c1cc2[nH]c(Cc3nc4cc(C5=NCCN5)ccc4[nH]3)nc2cc1C1=NCCN1`, the Ratio in the assay on Nucleic Acid [1] worked out at 3. For the same compound, the Tm in the assay with Nucleic Acid [2] was 13.5 °C; in the assay with Nucleic Acid [3] it was 10.7 °C; with Calf thymus DNA, 6.9 °C; with Nucleic Acid [4] it was 4.1 °C.
The corresponding values for `CC(C)NC(=N)c1ccc2[nH]c(-c3ccc(-c4nc5cc(C(=N)NC(C)C)ccc5[nH]4)cc3)nc2c1` are 8, 44.3 °C, 45 °C, 22.3 °C and 5.6 °C.
Regarding `N=C(N)c1ccc2[nH]c(CCCCCc3nc4cc(C(=N)N)ccc4[nH]3)nc2c1`, in the assay with Nucleic Acid [1], the Ratio was 5. For the same compound, the Tm was 24.7 °C in the assay with Nucleic Acid [2], 18.3 °C with Nucleic Acid [3], 10.1 °C in the assay with Calf thymus DNA and 3.3 °C in the assay on Nucleic Acid [4].
For the compound `N=C(N)c1ccc2[nH]c(Cc3nc4ccccc4[nH]3)nc2c1`, the Tm with Nucleic Acid [2] is 1.3 °C; in the assay on Nucleic Acid [3], 1 °C; in the assay on Calf thymus DNA, 1.4 °C; in the assay with Nucleic Acid [4], 0.2 °C.
Consider `Cc1cc(-c2nc3cc(C(=N)N)ccc3[nH]2)c(C)cc1-c1nc2cc(C(=N)N)ccc2[nH]1`, for which the Ratio in the assay with Nucleic Acid [1] amounted to 7. In addition, the Tm with Nucleic Acid [2] turned out to be 29 °C; in the assay with Nucleic Acid [3] it was 26.5 °C; with Calf thymus DNA, 15.6 °C; in the assay with Nucleic Acid [4], 3.7 °C.
Regarding `c1cc2[nH]c(CCc3nc4cc(C5=NCCCN5)ccc4[nH]3)nc2cc1C1=NCCCN1`, the Ratio with Nucleic Acid [1] amounted to 15. In addition, the Tm in the assay on Nucleic Acid [2] was found to be 45.1 °C; in the assay on Nucleic Acid [3], 39.5 °C; in the assay with Calf thymus DNA, 19.7 °C; in the assay with Nucleic Acid [4], 2.7 °C.
The corresponding values for `CC(C)NC(=N)c1ccc2[nH]c(/C=C/c3nc4cc(C(=N)NC(C)C)ccc4[nH]3)nc2c1` are 5, 31.6 °C, 22.5 °C, 22.8 °C and 5.5 °C.
The corresponding values for `N=C(N)c1ccc2c(ccn2CCCCCn2ccc3cc(C(=N)N)ccc32)c1` are 2.6, 15.3 °C, 12.9 °C, 10.2 °C and 5 °C.
Regarding `c1cc2[nH]c(CCCc3nc4cc(C5=NCCN5)ccc4[nH]3)nc2cc1C1=NCCN1`, the Ratio in the assay on Nucleic Acid [1] was determined as 6. Further, the Tm amounted to 24.8 °C in the assay on Nucleic Acid [2], 20.1 °C in the assay on Nucleic Acid [3], 9.9 °C in the assay on Calf thymus DNA and 3.3 °C in the assay with Nucleic Acid [4].
As to `c1cc2[nH]c(CCCCc3nc4cc(C5=NCCN5)ccc4[nH]3)nc2cc1C1=NCCN1`, the Ratio with Nucleic Acid [1] was 6. Besides, the Tm in the assay with Nucleic Acid [2] was determined as 34.5 °C; in the assay with Nucleic Acid [3], 28.9 °C; with Calf thymus DNA it was 15.3 °C; in the assay with Nucleic Acid [4], 4.6 °C.
For the compound `Nc1ccc2nc(CCc3nc4ccc(N)cc4[nH]3)[nH]c2c1`, the Tm worked out at 3 °C in the assay on Nucleic Acid [2], 0.6 °C with Nucleic Acid [3], 1.6 °C with Calf thymus DNA and 2.6 °C in the assay with Nucleic Acid [4].
In the case of `N=C(N)c1ccc2c(ccn2Cc2ccc(Cn3ccc4cc(C(=N)N)ccc43)cc2)c1`, in the assay with Nucleic Acid [1], the Ratio was 2.2. Also, the Tm in the assay with Nucleic Acid [2] turned out to be 10.8 °C; in the assay on Nucleic Acid [3] it was 11.9 °C; with Calf thymus DNA, 9.3 °C; in the assay on Nucleic Acid [4], 5.4 °C.
The corresponding values for `N=C(N)c1ccc2[nH]c(-c3ccc(-c4nc5cc(C(=N)N)ccc5[nH]4)cc3)nc2c1` are 7, 27.5 °C, 21.7 °C, 13.3 °C and 3.1 °C.
Taken in the same sequence, the figures for `C1=NCCCN1Cc1ccc2[nH]c(CCc3nc4cc(CN5C=NCCC5)ccc4[nH]3)nc2c1` were 18, 30.7 °C, 28.9 °C, 13.3 °C and 1.6 °C.
Regarding `c1c[nH]c(-c2ccc(-c3cc4ccc(-c5ncc[nH]5)cc4[nH]3)cc2)n1`, in the assay with Nucleic Acid [1], the Ratio came to 5. The Tm in the assay with Nucleic Acid [2] is 45.3 °C; with Nucleic Acid [3], 42.7 °C; in the assay with Calf thymus DNA, 22.4 °C; in the assay with Nucleic Acid [4], 9.4 °C.
As for `CC(C)NC(=N)c1ccc2[nH]c(CCc3nc4cc(C(=N)NC(C)C)ccc4[nH]3)nc2c1`, the Ratio in the assay with Nucleic Acid [1] was found to be 10. Also, the Tm came out at 37.3 °C in the assay on Nucleic Acid [2], 32.9 °C with Nucleic Acid [3], 19.2 °C in the assay on Calf thymus DNA and 3.3 °C in the assay with Nucleic Acid [4].
Taken in the same sequence, the figures for `N=C(N)c1ccc(-c2cc3ccc(C(=N)N)cc3[nH]2)cc1` were 6, 38.8 °C, 40.5 °C, 21.5 °C and 6.9 °C.
`O=[N+]([O-])c1ccc2[nH]c(CCc3nc4cc([N+](=O)[O-])ccc4[nH]3)nc2c1`: the Tm in the assay on Nucleic Acid [2] came out at 0.5 °C; in the assay on Nucleic Acid [3] it was 0.2 °C; in the assay with Calf thymus DNA, 1.5 °C; in the assay with Nucleic Acid [4], 2.6 °C.
`Cn1cc(NC(=O)c2cc(NC(=O)CNC(=N)N)cn2C)cc1C(=O)NCCC(=N)N`: the Ratio in the assay on Nucleic Acid [1] is 32. The Tm in the assay on Nucleic Acid [2] amounted to 46.6 °C; with Nucleic Acid [3], 35.1 °C; in the assay with Calf thymus DNA it was 19 °C; with Nucleic Acid [4], 1.1 °C.
For the compound `c1ccc2[nH]c(CCc3nc4ccccc4[nH]3)nc2c1`, the Tm in the assay on Nucleic Acid [2] stood at 2.1 °C; with Nucleic Acid [3] it was 0.1 °C; with Calf thymus DNA, 4.3 °C; in the assay on Nucleic Acid [4], 1 °C.
As to `N=C(N)c1ccc2[nH]c(CCc3nc4cc(C(=N)N)ccc4[nH]3)nc2c1`, the Ratio in the assay with Nucleic Acid [1] worked out at 4. For the same compound, the Tm came out at 42.4 °C in the assay on Nucleic Acid [2], 37.2 °C in the assay with Nucleic Acid [3], 18.5 °C in the assay on Calf thymus DNA and 4 °C in the assay with Nucleic Acid [4].
Taken in the same sequence, the figures for `N=C(N)c1ccc2[nH]c(CCCCCCCCc3nc4cc(C(=N)N)ccc4[nH]3)nc2c1` were 7, 22.8 °C, 21.2 °C, 10.2 °C and 3.2 °C.
Taken in the same sequence, the figures for `N=C(N)c1ccc2nc(Cc3nc4ccc(C(=N)N)cc4[nH]3)[nH]c2c1` were 3, 9.2 °C, 11.5 °C, 7.6 °C and 3.5 °C.
With `c1cc2[nH]c(CCc3nc4cc(N5CCOCC5)ccc4[nH]3)nc2cc1N1CCOCC1`, the Tm was 0.9 °C in the assay with Nucleic Acid [2], 0.8 °C in the assay with Nucleic Acid [3], 0.6 °C in the assay with Calf thymus DNA and -0.3 °C in the assay with Nucleic Acid [4].
Turning to `N=C(N)c1ccc2c(ccn2Cc2cccc(Cn3ccc4cc(C(=N)N)ccc43)c2)c1`, the Ratio in the assay on Nucleic Acid [1] turned out to be 2.3. Further, the Tm was 8.1 °C with Nucleic Acid [2], 9.2 °C in the assay with Nucleic Acid [3], 8.1 °C with Calf thymus DNA and 4 °C in the assay on Nucleic Acid [4].
Regarding `N=C(N)c1ccc2c(ccn2CCCCn2ccc3cc(C(=N)N)ccc32)c1`, the Ratio in the assay on Nucleic Acid [1] was determined as 2.2. The Tm in the assay with Nucleic Acid [2] is 18.2 °C; in the assay with Nucleic Acid [3] it was 16.3 °C; in the assay with Calf thymus DNA it was 12.1 °C; in the assay on Nucleic Acid [4], 7.3 °C.
With `c1cc2[nH]c(CCc3nc4cc(C5=NCCN5)ccc4[nH]3)nc2cc1C1=NCCN1`, the Tm in the assay with Nucleic Acid [2] worked out at 40 °C; with Nucleic Acid [3], 34.6 °C; in the assay on Calf thymus DNA, 18.5 °C; in the assay on Nucleic Acid [4], 3 °C.

For the origin of these results see ChEMBL document CHEMBL1126714, “Structure, DNA minor groove binding, and base pair specificity of alkyl- and aryl-linked bis(amidinobenzimidazoles) and bis(amidinoindoles)” (J Med Chem, 1993).
